Here are results for 15 compounds from patent US20090036422A1 (priority 2007, published 2009).

This assay deals with T1, human orexin-2 (hOX2) receptor (Homo sapiens, UniProt O43614).
T1 construct: expressed in transfected cells
T1 sequence (O43614 1-444): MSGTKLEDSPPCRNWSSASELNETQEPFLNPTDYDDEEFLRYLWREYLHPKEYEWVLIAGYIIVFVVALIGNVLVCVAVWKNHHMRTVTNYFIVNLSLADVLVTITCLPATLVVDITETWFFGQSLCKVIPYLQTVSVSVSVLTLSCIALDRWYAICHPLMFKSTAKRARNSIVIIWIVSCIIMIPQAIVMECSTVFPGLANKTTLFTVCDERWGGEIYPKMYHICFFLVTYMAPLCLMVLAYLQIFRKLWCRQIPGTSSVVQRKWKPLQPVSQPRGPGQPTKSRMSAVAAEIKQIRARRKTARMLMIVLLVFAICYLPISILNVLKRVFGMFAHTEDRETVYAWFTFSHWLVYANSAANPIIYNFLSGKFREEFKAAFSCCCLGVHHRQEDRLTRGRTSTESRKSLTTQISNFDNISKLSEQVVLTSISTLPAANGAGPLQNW
In words: Intracellular Ca2+ mobilization assay (FLIPR), CHO(dHFr-) cells expressing hOX2, orexin-A at EC80 as agonist. The conditions noted are these: Kb=IC50/(1+[A]/EC50); CHO(dHFr-)-OX2R cells, antagonist applied 25 min before orexin-A EC80. Type of assay: cell-based. As to the method: Intracellular Ca^2+ Mobilization Assay
The Chinese Hamster Ovary (dHFr−) mutant cell line stably expressing human orexin-1 (hOX1) or human orexin-2 (hOX2) receptors were maintained in Dulbecco's Modified Eagle Medium (1×) with GlutaMax™ 1, 4500 mg/L D-Glucose and Sodium Pyruvate (Catalog No. 31966-021, Invitrogen, Carlsbad, Calif.), 5% dialyzed fetal calf serum (Catalog No. 26400-044), 100 μg/ml penicillin and 100 μg/ml streptomycin. The cells were seeded at 5×10^4 cells/well in the poly-D-lysine treated, 96-well, black/clear-bottomed plates (Catalog No. BD356640, BD Biosciences, Palo Alto, Calif.). 24 h later, the cells were loaded for 1 h at 37° C. with 4 μM Flou-4 acetoxymethyl ester (Catalog No. F-14202, Molecular Probes, Eugene, Oreg.) in FLIPR buffer (1×HBSS, 20 mM HEPES, 2.5 mM Probenecid). Hanks' Balanced Salt Solution (HBSS) (10×) (catalog No. 14065-049) and HEPES (1M) (catalog No. 15630-056) were purchased from Invitrogen, Carlsbad, Calif. Probenecid (250 mM) (catalog No. P8761) was from Sigma, Buchs, Switzerland. The cells were washed five times with FLIPR buffer to remove excess dye and intracellular calcium mobilization, [Ca^2+]i were measured using a Fluorometric Imaging Plate Reader (FLIPR-96, Molecular Devices, Menlo Park, Calif.) as described previously (Malherbe et al., Mol. Pharmacol., 64, 823-832, 2003). Orexin A (catalog No. 1455, Toris Cookson Ltd, Bristol, UK) was used as agonist. Orexin A (50 mM stock solution in DMSO) was diluted in FLIPR buffer +0.1% BSA. The EC50 and EC80 values of orexin-A were measured daily from standard agonist concentration-response curves in CHO(dHFr−) —OX1R and —OX2R cell lines. All compounds were dissolved in 100% DMSO. Inhibition curves were determined by addition of 11 concentrations (0.0001-10 μM) of inhibitory compounds and using EC80 value of orexin-A as agonist (a concentration which gave 80% of max agonist response, determined daily). The antagonists were applied 25 min (incubation at 37° C.) before the application of the agonist. Responses were measured as peak increase in fluorescence minus basal, normalized to the maximal stimulatory effect induced by EC80 value of orexin-A or orexin-B. Inhibition curves were fitted according to the Hill equation: y=100/(1+(x/IC50)^nH), where nH=slope factor using Excel-fit 4 software (Microsoft).
Kb values were calculated according to the following equation Kb=IC50/(1+[A]/EC50) where A is the concentration of agonist added which is very close to agonist EC80 value, and IC50 and EC50 values were derived from the antagonist inhibition and orexin-A or B agonist curves, respectively.
On the technique in general: A change in cytosolic calcium serves as a functional read-out for many receptors and channels.
`CCOC(C(=O)N(CCc1ccc(C(F)(F)F)cc1)c1ccc(C)c(C)c1)c1ccccc1` (racemic) [Example 221, (R,S)—N-(3,4-Dimethyl-phenyl)-2-ethoxy-2-phenyl-N-[2-(4-trifluoromethyl-phenyl)-ethyl]-acetamide]: the Kb (as a rule, the equilibrium dissociation constant of an antagonist, usually derived from a functional assay) was found to be 0.0834 µM.

`COc1ccc(N(CCc2ccc(C(F)(F)F)cc2)C(=O)[C@H](N)c2ccccc2)cc1OC` (single isomer, unassigned) [Example 174]: the Kb came out at 0.046 µM.

As for `COc1ccccc1CC(=O)N(CCc1ccc(C(F)(F)F)cc1)c1ccc(OC)c(OC)c1` [Example 14, N-(3,4-dimethoxyphenyl)-2-(2-methoxyphenyl)-N-{2-[4-(trifluoromethyl)phenyl]ethyl}acetamide], the antagonist dissociation constant (Kb) was determined as 0.0342 µM.

`COc1ccc(N(CCc2ccc(C(F)(F)F)cc2)C(=O)C(O)c2ccccc2OC)cc1OC` (stereo not drawn) [Example 17, N-(3,4-dimethoxyphenyl)-2-hydroxy-2-(2-methoxyphenyl)-N-{2-[4-(trifluoromethyl)phenyl]ethyl}acetamide] displayed a Kb of 0.0165 µM.

`COc1ccc(N(CCc2ccc(C(F)(F)F)cc2)C(=O)[C@@H](O)c2ccccc2)cc1OC` [Example 23, (2S)-N-(3,4-dimethoxyphenyl)-2-hydroxy-2-phenyl-N-{2-[4-(trifluoromethyl)phenyl]ethyl}acetamide] showed a Kb of 0.0226 µM.

In turn, `COc1ccc(N(CCc2ccc(C(F)(F)F)cc2)C(=O)C(O)c2ccc(F)cc2)cc1OC` (stereo not drawn) [Example 26, N-(3,4-dimethoxyphenyl)-2-(4-fluorophenyl)-2-hydroxy-N-{2-[4-(trifluoromethyl)phenyl]ethyl}acetamide] registered a Kb of 0.0592 µM.

`COc1ccc(C(O)C(=O)N(CCc2ccc(C(F)(F)F)cc2)c2ccc(OC)c(OC)c2)cc1O` (stereo not drawn) [Example 27, N-(3,4-dimethoxyphenyl)-2-hydroxy-2-(3-hydroxy-4-methoxyphenyl)-N-{2-[4-(trifluoromethyl)phenyl]ethyl}acetamide] showed an antagonist dissociation constant (Kb) of 0.0737 µM.

As for `COc1ccc(N(CCc2ccc(C(F)(F)F)cc2)C(=O)C(O)c2ccc(Cl)cc2)cc1OC` (stereo not drawn) [Example 30, 2-(4-chlorophenyl)-N-(3,4-dimethoxyphenyl)-2-hydroxy-N-{2-[4-(trifluoromethyl)phenyl]ethyl}acetamide], the antagonist dissociation constant (Kb) came to 0.0757 µM.

`COc1ccc(N(CCc2ccc(C(F)(F)F)cc2)C(=O)C(O)c2ccccc2F)cc1OC` (stereo not drawn) [Example 31, N-(3,4-dimethoxyphenyl)-2-(2-fluorophenyl)-2-hydroxy-N-{2-[4-(trifluoromethyl)phenyl]ethyl}acetamide] displayed an antagonist equilibrium constant (Kb) of 0.0336 µM.

Take `CNC(C(=O)N(CCc1ccc(C(F)(F)F)cc1)c1ccc(OC)c(OC)c1)c1ccccc1OC` (stereo not drawn) [Example 34, N-(3,4-Dimethoxy-phenyl)-2-(2-methoxy-phenyl)-2-methylamino-N-[2-(4-trifluoromethyl-phenyl)-ethyl]-acetamide]: the antagonist equilibrium constant (Kb) was found to be 0.027 µM.

`COc1ccc(N(CCc2ccc(C(F)(F)F)cc2)C(=O)C(N)c2ccccc2OC)cc1OC` (stereo not drawn) [Example 35, 2-Amino-N-(3,4-dimethoxy-phenyl)-2-(2-methoxy-phenyl)-N-[2-(4-trifluoromethyl-phenyl)-ethyl]-acetamide] showed a Kb of 0.0088 µM.

`COc1cccc(N(CCc2ccc(C(F)(F)F)cc2)C(=O)C(N)c2ccccc2OC)c1` (stereo not drawn) [Example 38, 2-Amino-2-(2-methoxy-phenyl)-N-(3-methoxy-phenyl)-N-[2-(4-trifluoromethyl-phenyl)-ethyl]-acetamide] gave an antagonist equilibrium constant (Kb) of 0.0577 µM.

With `COc1ccccc1C(N)C(=O)N(CCc1ccc(C(F)(F)F)cc1)c1ccc2c(c1)OCO2` (stereo not drawn) [Example 41], the antagonist dissociation constant (Kb) amounted to 0.0505 µM.

With `COc1ccc(N(CCc2ccc(C(F)(F)F)cc2)C(=O)C(N)c2ccccc2OC)cc1F` (stereo not drawn) [Example 42], the Kb stood at 0.0559 µM.

Turning to `COc1ccc(N(CCc2ccc(C(F)(F)F)cc2)C(=O)C(N)c2ccccc2OC)cc1Cl` (stereo not drawn) [Example 43, 2-Amino-N-(3-chloro-4-methoxy-phenyl)-2-(2-methoxy-phenyl)-N-[2-(4-trifluoromethyl-phenyl)-ethyl]-acetamide], the Kb worked out at 0.0162 µM.
